Data taken from patent publication US5621000A, “Nitric esters having a pharmacological activity and process for their preparation” (priority 1992, dated 1997).
Where two headings read alike, the source gives them in different places.

Legend:
[1] = tested on: central nervous, autonomic, cardiovascular, respiratory and gastrointestinal systems; assay: General (secondary) pharmacology; format: in vivo; details: in comparison with Ketoprofen or Flurbiprofen
[2] = tested on: phenylquinone writhing; assay: Mouse phenylquinone writhing; format: in vivo; details: 3 to 10 mg/kg p.o.
[3] = tested on: adjuvant arthritis; assay: Rat adjuvant arthritis; format: in vivo; details: 3 mg/kg p.o., 19 consecutive days (days 3 through 21 after adjuvant injection), compared to controls
[4] = tested on: non rodents; assay: in vivo; format: in vivo; details: for tolerability in non rodents: increasing oral doses up to 30 mg/kg, preliminary; for mortality in non rodents: 10 mg/kg, reference compounds
[5] = in vivo; format: in vivo; details: in vivo, read-out: maximum tolerated dose: highest oral dose without apparent symptoms
[6] = tested on: prostaglandin E2 synthesis (gastric); assay: Gastric prostaglandin synthesis; format: in vivo; details: for inhibition of gastric prostaglandin E2 synthesis: at the highest dose (5-20 mg/kg p.o.)
[7] = tested on: plasma nitrate/nitrite levels; assay: NO release: plasma nitrate/nitrite levels; format: in vivo; details: for increase of plasma nitrate/nitrite levels: one hour after the administration; for effect on plasma nitrate/nitrite levels: reference compounds
[8] = tested on: carrageenan paw edema; assay: Carrageenan paw edema, anti-inflammatory activity; format: in vivo, Wistar rats; details: for efficacy in rat carrageenan paw edema vs reference drugs: p.o., compared with Ketoprofen and Flurbiprofen; for ANTI-INFLAM. ACTIVITY (power ratio relative to the corresponding acid): carrageenan paw edema, Wistar rats, mean of 10 animals
Method: (§1) The anti-inflammatory and anti-platelet aggregation activity as well as the gastrointestinal ulcerogenicity, for instance of nitric esters having the following formulae, were tested by means of biological studies: [drawing 16]
The anti-inflammatory activity of said nitric esters was determined in Wistar rats utilizing the method of the carrageenan paw edema, as reported in C. A. WINTER, E. RISLEY, G. W. NUSS, Proc. Soc. Exp. Biol. Med. 111,544 (1962), while the anti-platelet aggregation activity of said derivatives was determined on human platelets stimulated by arachidonic acid, according to the method described by V. BERTELE et al., Science 220,517 (1983).
(§2) The anti-inflammatory and anti-platelet aggregation activity as well as the gastrointestinal ulcerability activity of said derivatives are given on Table 1, and are expressed, for each nitric ester indicated, as the power ratio relative to the corresponding acids non functionalized according to the general formula (I), according to this invention. Each value represents the mean of the values obtained by the treatment of 10 animals.

[9] = tested on: leukocyte adherence to mesenteric post-capillary venules; assay: Gastric leukocyte adherence/vessel diameter (intravital microscopy); format: in vivo; details: for blood pressure: one hour period after administration
From the text: GASTRIC LEUKOCYTE ADHERENCE/VESSEL DIAMETER. […] J. Physiol.

[10] = tested on: prostaglandin E2 in exudate; assay: Prostaglandin synthesis in the inflammatory exudate (carrageenan sponge); format: in vivo; details: for inhibition at 20 mg/kg: po, read-out: inhibition of the formation of prostaglandin E2 in exudate
From the text: PROSTAGLANDIN SYNTHESIS IN THE INFLAMMATORY EXUDATE.
Subcutaneous implantation of carrageenan sponge elicits the infiltration of inflammatory cells, as reported in Nature 284, 271 (1980). […]

[11] = Rat gastric mucosa injury; details: po
[12] = tested on: gastrointestinal ulcerogenicity; assay: Gastrointestinal ulcerability after oral administration; format: in vivo, rat
Method: as §1
The gastrointestinal ulcerability was evaluated by oral administration in the rat.
as §2

[13] = tested on: human platelets; assay: Anti-platelet aggregation activity on platelets stimulated by arachidonic acid; format: cell-based
Method: as §1
The anti-inflammatory activity of said nitric esters was determined in Wistar rats utilizing the method of the carrageenan paw edema, as reported in C. A. WINTER, E. RISLEY, G. W. NUSS, Proc. Soc.
as §2

[14] = tested on: collagen-induced platelet aggregation; assay: In vivo platelet aggregation, collagen-induced; details: 20 mg/kg p.o. in the rat; for inhibition at 20 mg/kg: Platelet, po, versus controls
From the text: IN VIVO PLATELET AGGREGATION.

[15] = tested on: gastric mucosa; assay: Rat gastric mucosa injury
[16] = tested on: mouse; assay: Preliminary acute toxicity in the mouse by two administration routes; format: in vivo; details: oral or intraperitoneal doses of 300 mg/kg
[17] = tested on: gastric mucosa; details: rat, in vivo, po
[18] = prior to and during one hour after administration, intravital microscopy
[19] = oral administration in the rat, ratio to corresponding acid, mean of 10 animals

## CC(C(=O)OCCCCO[N+](=O)[O-])c1ccc(-c2ccccc2)c(F)c1 (stereo not drawn) [(XII), nitric ester of 2-fluoro-alpha-methyl-4-diphenyl acetate of 4-hydroxybutyl]
[1]
  additional adverse reactions (secondary pharmacological evaluation): No relevant additional adverse reactions were observed
[2]
  efficacy in phenylquinone writhing: fully effective
[3]
  reduction in the arthritic symptomatology: significant and comparative reduction in the arthritic symptomatology
[4]
  tolerability in non rodents: very well tolerated
[5]; oral, non rodents, increasing doses up to 30 mg/kg, preliminary
  MTD: ≥ 30 mg/kg
[6]
  inhibition of gastric prostaglandin E2 synthesis: more than 90%
[7]
  increase of plasma nitrate/nitrite levels: more than 50%
[8]
  efficacy in rat carrageenan paw edema vs reference drugs: efficacy comparable with the corresponding reference drugs
[9]
  blood pressure: No changes in blood pressure were observed
[9]; [18]
  diameter of vessels: increasing the diameter of vessels significantly
  leukocyte adherence to post-capillary venules: did not induce significant leukocyte adherence
[10]
  inhibition at 20 mg/kg: > 75%
[11]; in vivo
  NOAEL: ≥ 30 mg/kg

## CC(C(=O)OCCCCO[N+](=O)[O-])c1cccc(C(=O)c2ccccc2)c1 (stereo not shown) [(XVIII), nitric ester of 2-(3-benzoilphenyl)propionate of 4-hydroxybutyl]
[1]
  additional adverse reactions (secondary pharmacological evaluation): No relevant additional adverse reactions were observed
[12]; [19]
  GASTRO-INTESTINAL ULCERABILITY (power ratio relative to the corresponding acid): 0,20
[13]
  ANTI-AGGREG. ACTIVITY (power ratio relative to the corresponding acid): 1,35
[2]
  efficaciousness in phenylquinone writhing relative to reference compounds: almost comparable with that of the corresponding reference compounds
  efficacy in phenylquinone writhing: fully effective
[3]
  reduction in the arthritic symptomatology: significant and comparative reduction in the arthritic symptomatology
[4]
  tolerability in non rodents: very well tolerated
[5]; po
  MTD: ≥ 30 mg/kg
[6]; 5-20 mg/kg p.o., vs Ketoprofen and Flurbiprofen
  inhibition of gastric prostaglandin E2 synthesis relative to reference compounds: inhibited significantly and comparatively to the corresponding reference compounds
[6]
  inhibition of gastric prostaglandin E2 synthesis: more than 90%
[7]
  increase of plasma nitrate/nitrite levels: more than 50%
[8]
  ANTI-INFLAM. ACTIVITY (power ratio relative to the corresponding acid): 1,25
  efficacy in rat carrageenan paw edema vs reference drugs: efficacy comparable with the corresponding reference drugs
[9]
  blood pressure: No changes in blood pressure were observed
[9]; [18]
  diameter of vessels: increasing the diameter of vessels significantly
  leukocyte adherence to post-capillary venules: did not induce significant leukocyte adherence
[14]
  inhibition of platelet aggregation, comparison with Flurbiprofen: significantly more effective than the latter
  inhibition at 20 mg/kg: 66%
[10]; 20 mg/kg p.o., vs Ketoprofen and Flurbiprofen
  efficacy on exudate prostaglandin E2 relative to reference compounds: comparative efficacy to the corresponding reference compounds
[10]; 20 mg/kg p.o., compared with controls
  inhibition at 20 mg/kg: > 75%
[15]; 3 to 30 mg/kg p.o.
  gastric tolerability relative to reference compounds: significantly better tolerated than reference compounds
[11]; gastric mucosa
  NOAEL: ≥ 30 mg/kg
[16]
  acute toxicity: No evident toxicity was observed

## CC(C(=O)OCCCCO[N+](=O)[O-])c1ccc(C(=O)c2cccs2)cc1 (stereo not shown) [(XXIV)]
[12]; [19]
  GASTRO-INTESTINAL ULCERABILITY (power ratio relative to the corresponding acid): 0,35
[13]
  ANTI-AGGREG. ACTIVITY (power ratio relative to the corresponding acid): 1,30
[8]
  ANTI-INFLAM. ACTIVITY (power ratio relative to the corresponding acid): 1,20

## CCC(C(=O)OCCCCO[N+](=O)[O-])c1ccc(N2Cc3ccccc3C2=O)cc1 (stereo not shown) [(XXV)]
[12]; [19]
  GASTRO-INTESTINAL ULCERABILITY (power ratio relative to the corresponding acid): 0,30
[13]
  ANTI-AGGREG. ACTIVITY (power ratio relative to the corresponding acid): 1,25
[8]
  ANTI-INFLAM. ACTIVITY (power ratio relative to the corresponding acid): 1,05

## CCc1cccc2c3c([nH]c12)C(CC)(CC(=O)OCCCCO[N+](=O)[O-])OCC3 (stereo not shown) [(XXVI)]
[12]; [19]
  GASTRO-INTESTINAL ULCERABILITY (power ratio relative to the corresponding acid): 0,33
[13]
  ANTI-AGGREG. ACTIVITY (power ratio relative to the corresponding acid): 1,10
[8]
  ANTI-INFLAM. ACTIVITY (power ratio relative to the corresponding acid): 1,40

## CC(C(=O)O)c1ccc(-c2ccccc2)c(F)c1 (stereo not shown) [Flurbiprofen, reference compound]
[4]
  mortality in non rodents: caused the death of the animals
[17]
  dose causing the onset of gastric damages: ≤ 3 mg/kg
[7]
  effect on plasma nitrate/nitrite levels: did not affect plasma nitrate/nitrite levels significantly
[9]; in vivo
  leukocyte adherence to post-capillary venules: Unlike Ketoprofen or Flurbiprofen, (XVIII) or (XII) did not induce significant leukocyte adherence
[14]
  inhibition at 20 mg/kg: 40%

## CCC(C(=O)O)c1ccc(N2Cc3ccccc3C2=O)cc1 (stereo not shown) [Indobufen, reference compound]
[12]; [19]
  GASTRO-INTESTINAL ULCERABILITY (power ratio relative to the corresponding acid): 1
[13]
  ANTI-AGGREG. ACTIVITY (power ratio relative to the corresponding acid): 1
[8]
  ANTI-INFLAM. ACTIVITY (power ratio relative to the corresponding acid): 1

## CC(C(=O)O)c1cccc(C(=O)c2ccccc2)c1 (stereo not shown) [Ketoprofen, 2-(3-benzoylphenyl)propionic acid, reference compound]
[4]
  mortality in non rodents: caused the death of the animals
[7]
  effect on plasma nitrate/nitrite levels: did not affect plasma nitrate/nitrite levels significantly
[9]; [18]
  leukocyte adherence to post-capillary venules: Unlike Ketoprofen or Flurbiprofen, (XVIII) or (XII) did not induce significant leukocyte adherence
[15]; 3 to 30 mg/kg p.o.
  severity of gastric damages: dose-dependent
[15]; p.o.
  dose causing the onset of gastric damages: ≤ 3 mg/kg

## CC(C(=O)O)c1ccc(C(=O)c2cccs2)cc1 (stereo not shown) [Suprofen, reference compound]
[12]; rat, in vivo, po
  GASTRO-INTESTINAL ULCERABILITY (power ratio relative to the corresponding acid): 1
[13]
  ANTI-AGGREG. ACTIVITY (power ratio relative to the corresponding acid): 1
[8]
  ANTI-INFLAM. ACTIVITY (power ratio relative to the corresponding acid): 1
